Molecules are shown by their SMILES.

The text below walks through data of US20120022047A1, “PROCESS FOR THE PURIFICATION OF ESLICARBAZEPINE ACETATE” (GLENMARK GENERICS LTD, priority 2009, published 2012).

Data set [1] in a line: Particle size distribution by laser diffraction (Malvern Mastersizer). The data set is classed as physicochemical. Conditions: crystal particles obtained by the processes herein described. The source says: As used herein, the phrase, “particle size distribution (PSD)” means the cumulative volume size distribution of equivalent spherical diameters as determined by laser diffraction at 1 bar dispersive pressure in a Sympatec Helos equipment. d10, as used herein is defined as the particle size at which the cumulative percentage undersize is 10 (i.e. the bottom 10% of particles are less than or equal to the stated size). d50 means the median particle size and d90 is defined as the particle size at which the cumulative percentage undersize is 90 (i.e. the bottom 90% of particles are less than or equal to the stated size). The particle size of eslicarbazepine acetate was measured under following conditions. [table] In accordance with the invention, the size distribution of eslicarbazepine acetate particles is determined by laser diffraction. In the present invention, the method in the determination of the size of eslicarbazepine acetate particles employed a Malvern Mastersizer laser diffraction instrument. Samples of the eslicarbazepine acetate were suspended in hexane containing a surfactant, 1% Tween80®. The suspensions were mixed and then sonicated for 120 seconds to thoroughly disperse the eslicarbazepine acetate particles. The dispersion was then circulated in the flow cell of the Malvern Mastersizer for two minutes before particle size measurements were taken.

A short description of data set [2]: Specific surface area by Brunauer-Emmett-Teller (B.E.T.) nitrogen absorption. The data set is classed as physicochemical. Conditions: crystal particles, measured by B.E.T. The source says: Specific surface area is defined in units of square meters per gram (m2/g). It is usually measured by nitrogen absorption analysis. In this analysis, nitrogen is absorbed on the surface of the substance. The amount of the absorbed nitrogen (as measured during the absorption or the subsequent desorption process) is related to the surface area via a formula known as the Brunauer Emmet Teller (B.E.T.) formula.

Regarding `CC(=O)O[C@H]1Cc2ccccc2N(C(N)=O)c2ccccc21` [eslicarbazepine acetate, (S)-(−)-10-(acetyloxy)-10,11-dihydro-5H-dibenz[b,f]-azepine-5-carboxamide], in data set [1], the “Particle size distribution d 10” value is listed as 5.421 μm, the “Particle size distribution d 50 (median particle size)” value was determined as 19.780 μm and the “Particle size distribution d 90” value came out at 168.686 μm. Moreover, the Specific surface area result in data set [2] is given as “about 1.37 m^2/g”.
